The values below come from patent US6469010B1, “Medicament for the alleviation or treatment of symptom derived from the ischemic disease and compound useful thereof” (Suntory Limited, priority 1995, dated 2002).

One test has as its system DBA/2N mice. Briefly: Audiogenic seizure suppressing action. It is filed as in vivo. As to conditions: Mus musculus, ip, 20 min; compound 10 mg/kg, i.p.; audio stimulus after 20 minutes; suppression of average seizure score; read-out: Antiseizure action (suppression rate %). On the procedure:
Audiogenic Seizure Suppressing Action
The audiogenic seizure suppressing action of the compounds was evaluated by the method of Sarro et al. [G. B. De Sarro et al.; Br. J. Pharmacol., 93, 247 (1988)]. That is, DBA/2N mice (male, 3 weeks) were administered with the compound dissolved in 10% 2-hydroxypropyl-β-cyclodextrin intraperitoneally. After 20 minutes, a supersonic washer was used to apply audio stimulus of at least 90 dB for one minute. The wild running (WR), clonic seizures (clonus), tonic seizures (tonus), and respiratory arrest (RA) were evaluated. The seizure suppressing action was evaluated from the rate or suppression of the average value of the seizure score found from 0=no response, 1=WR, 2=clonus, 3=tonus, and 4=RA.

Another test concerns Na+ channel. Briefly: Veratridine-induced sodium channel activity inhibiting action (membrane potential of synaptosomes, Rhodamine 6G). It counts as biochemical, Wistar rats. As to conditions: 0.1 μM of compound; rat brain synaptosomes, veratridine-induced depolarization. The method, then:
Veratridine-induced Sodium Channel Activity Inhibiting Action
The membrane potential of the synaptosomes prepared from the brain membrane of Wistar rats (male, 10 to 12 weeks old) was measured by the method of Aiuchi et al. [T. Aiuchi et al: Biochimi. Biophys. Acta.

Regarding `C1=C(c2ccc(Oc3ccccc3)cc2)CCN(C/C=C/c2ccccc2)C1` [Compound 18, (E)-4-(4-phenoxyphenyl)-1-(3-phenyl-2-propenyl)-1,2,3,6-tetrahydropyridine], the inhibition in vivo at 10 mg/kg with DBA/2N mice came to 27.9%. Moreover, the “Antiveratridine action (inhibiting rate %)” value in the test on Na+ channel is 16%.

With `COc1cc(/C=C/CN2CCC(c3ccc(Oc4ccccc4)cc3)CC2)ccc1O` [Compound 19, (E)-1-[3-(4-hydroxy-3-methoxyphenyl)-2-propenyl]-4-(4-phenoxyphenyl)piperidine], the inhibition in vivo at 10 mg/kg in the test on DBA/2N mice was determined as 53.6%. Besides, the “Antiveratridine action (inhibiting rate %)” value in the test on Na+ channel amounted to 26.1%.

Consider `c1ccc(CCCN2CCC(c3ccc(Oc4ccccc4)cc3)CC2)cc1` [Compound 22, 4-(4-phenoxyphenyl)-1-(3-phenylpropyl)piperidine], for which the inhibition in vivo at 10 mg/kg with DBA/2N mice worked out at 85.7%.

In the case of `COc1cc(/C=C/CN2CC=C(c3ccc(Oc4ccccc4)cc3)CC2)ccc1O` [Compound 24, (E)-1-[3-(4-hydroxy-3-methoxyphenyl)-2-propenyl]-4-(4-phenoxyphenyl)-1,2,3,6-tetrahydropyridine], the inhibition in vivo at 10 mg/kg in the test with DBA/2N mice was 49.1%.

Turning to `Fc1ccc(/C=C/CN2CCC(c3ccc(Oc4ccccc4)cc3)CC2)cc1` [Compound 25, (E)-1-[3-(4-fluorophenyl)-2-propenyl]-4-(4-phenoxyphenyl)piperidine], the inhibition in vivo at 10 mg/kg in the test with DBA/2N mice is 72%.

`Fc1ccc(OCCN2CCC(c3ccc(Oc4ccccc4)cc3)CC2)cc1` [Compound 27, 1-[2-(4-fluorophenyl)oxyethyl]-4-(4-phenoxyphenyl)piperidine]: in the test on DBA/2N mice, the inhibition in vivo at 10 mg/kg is 34%.

`Fc1ccc(OCCCCN2CCC(c3ccc(Oc4ccccc4)cc3)CC2)cc1` [Compound 28, 1-[4-(4-fluorophenyl)-oxybutyl]-4-(4-phenoxyphenyl)piperidine]: the inhibition in vivo at 10 mg/kg in the test with DBA/2N mice amounted to 56.9%. In the test on Na+ channel, the “Antiveratridine action (inhibiting rate %)” value is reported as 38%.

As for `COc1ccc(CN2CCC(c3ccc(Oc4ccccc4)cc3)CC2)c(OC)c1OC` [Compound 29, 4-(4-phenoxyphenyl)-1-[(2,3,4-trimethoxyphenyl)methyl]piperidine], the inhibition in vivo at 10 mg/kg in the test with DBA/2N mice was found to be 66.2%. The “Antiveratridine action (inhibiting rate %)” value in the test with Na+ channel came to 9.9%.

With `Fc1ccc(Cc2ccc(C3=CCN(C/C=C/c4ccccc4)CC3)cc2)cc1` [Compound 31, (E)-4-[4-(4-fluorophenyl)-methylphenyl]-1-(3-phenyl-2-propenyl)-1,2,3,6-tetrahydropyridine], the inhibition in vivo at 10 mg/kg in the test with DBA/2N mice was 48%.

For the molecule `Fc1ccc(Cc2ccccc2C2=CCN(C/C=C/c3ccccc3)CC2)cc1` [Compound 34, (E)-4-[2-(4-fluorophenyl)methylphenyl]-1-(3-phenyl-2-propenyl)-1,2,3,6-tetrahydropyridine], the inhibition in vivo at 10 mg/kg in the test on DBA/2N mice was 34%.

Take `Fc1ccc(OCCCCN2CCN(c3ccc(Oc4ccccc4)cc3)CC2)cc1` [Compound 41, 4-[4-(4-fluorophenyl)-oxybutyl]-1-(4-phenoxyphenyl)piperazine]: in the test with DBA/2N mice, the inhibition in vivo at 10 mg/kg turned out to be 42.7%. In addition, the “Antiveratridine action (inhibiting rate %)” value with Na+ channel is 20.8%.

For `C(=C\c1ccccc1)/CN1CCN(c2ccccc2Oc2ccccc2)CC1` [Compound 42, (E)-1-(2-phenoxyphenyl)-4-(3-phenyl-2-propenyl)piperazine], the inhibition in vivo at 10 mg/kg in the test on DBA/2N mice came to 60%.

Regarding `COc1ccc(CN2CCN(c3ccc(Oc4ccccc4)cc3)CC2)c(OC)c1OC` [Compound 46, 1-(4-phenoxyphenyl)-4-[(2,3,4-trimethoxyphenyl)methyl]piperazine], the inhibition in vivo at 10 mg/kg with DBA/2N mice amounted to 27.9%. Also, the “Antiveratridine action (inhibiting rate %)” value in the test with Na+ channel is 11.7%.

In the case of `COc1ccc(/C=C/CN2CCN(c3ccc(Cc4ccc(F)cc4)cc3)CC2)c(OC)c1OC` [Compound 48, (E)-1-[4-(4-fluorophenyl)-methylphenyl]-1-[3-(2,3,4-trimethoxyphenyl)-2-propenyl]-piperazine], the inhibition in vivo at 10 mg/kg with DBA/2N mice was 53.6%. Besides, the “Antiveratridine action (inhibiting rate %)” value in the test with Na+ channel was found to be 20.5%.

Consider `C(=C\c1ccccc1)/CN1CCN(c2ccccc2Cc2ccccc2)CC1` [Compound 51, (E)-1-(2-benzylphenyl)-4-(3-phenyl-2-propenyl)piperazine], for which the inhibition in vivo at 10 mg/kg with DBA/2N mice is 71.4%.

In the case of `c1ccc(Cc2ccccc2N2CCN(CC3CC3c3ccccc3)CC2)cc1` (stereo not drawn) [Compound 52, (E)-1-(2-benzylphenyl)-4-[trans-(2-phenyl)cyclopropylmethyl]piperazine], the inhibition in vivo at 10 mg/kg with DBA/2N mice stood at 20%.

Regarding `Fc1ccc(Cc2ccc(N3CCN(CC4CC4c4ccccc4)CC3)cc2)cc1` (stereo not drawn) [Compound 55, (E)-1-[4-(4-fluorophenyl)-methylphenyl]-4-[trans-(2-phenyl)cyclopropylmethyl]-piperazine], in the test on DBA/2N mice, the inhibition in vivo at 10 mg/kg turned out to be 62%.

In the case of `COc1ccc(CN2CCN(c3ccc(Cc4ccc(F)cc4)cc3)CC2)c(OC)c1OC` [Compound 56, 1-[4-(4-fluorophenyl)-methylphenyl]-4-[(2,3,4-trimethoxyphenyl)methyl]piperazine], the inhibition in vivo at 10 mg/kg in the test on DBA/2N mice was 50%.

For the molecule `Fc1ccc(Cc2ccc(N3CCN(CCCCOc4ccc(F)cc4)CC3)cc2)cc1` [Compound 57, 4-[4-(4-fluorophenyl)-oxybutyl]-1-[4-(4-fluorophenyl)methylphenyl]pinerazine], the “Antiveratridine action (inhibiting rate %)” value with Na+ channel worked out at 25%.

As for `O=C(CCCN1CCN(c2ccc(Cc3ccc(F)cc3)cc2)CC1)c1ccc(F)cc1` [Compound 58, 1-[4-(4-fluorophenyl)methylphenyl]-4-[4-((4-fluorophenyl)-4-oxo)butyl]-piperazine], in the test with DBA/2N mice, the inhibition in vivo at 10 mg/kg was 66%. Further, the “Antiveratridine action (inhibiting rate %)” value in the test on Na+ channel was 33.9%.

For `Fc1ccc(Cc2ccc(C3CCN(CC4(c5ccccc5)CC4)CC3)cc2)cc1` [Compound 62, 4-[4-(4-fluorophenyl)-methylphenyl]-1-(1-phenyl-1-cyclopropane)methyl-piperidine], in the test on DBA/2N mice, the inhibition in vivo at 10 mg/kg was 44%. Also, in the test with Na+ channel, the “Antiveratridine action (inhibiting rate %)” value worked out at 23.9%.

Consider `O=C(CN1CCC(c2ccc(Cc3ccc(F)cc3)cc2)CC1)c1ccccc1` [Compound 63, 4-[4-(4-fluorophenyl)methylphenyl]-1-(2-phenyl-2-oxo)ethylpiperidine], for which, in the test on DBA/2N mice, the inhibition in vivo at 10 mg/kg worked out at 76%. In addition, the “Antiveratridine action (inhibiting rate %)” value in the test on Na+ channel was determined as 31.1%.

Consider `O=C(CN1CCC(c2ccc(Oc3ccccc3)cc2)CC1)c1ccccc1` [Compound 64, 4-(4-phenoxyphenyl)-1-(2-phenyl-2-oxo)ethylpiperidine], for which, in the test on DBA/2N mice, the inhibition in vivo at 10 mg/kg was found to be 94%. Further, the “Antiveratridine action (inhibiting rate %)” value in the test on Na+ channel is listed as 34.5%.

For the molecule `COc1ccc(C(=O)CN2CCC(c3ccc(Oc4ccccc4)cc3)CC2)cc1` [Compound 66, 1-[2-(4-methoxyphenyl)-2-oxo]ethyl-4-(4-phenoxyphenyl)piperidine], the inhibition in vivo at 10 mg/kg with DBA/2N mice is 39.2%. The “Antiveratridine action (inhibiting rate %)” value in the test with Na+ channel was found to be 19.6%.

As to `O=C(CN1CCC(c2ccc(Oc3ccccc3)cc2)CC1)c1ccc(Cl)cc1` [Compound 68, 1-[2-(4-chlorophenyl)-2-oxo]ethyl-4-(4-phenoxyphenyl]piperidine], the “Antiveratridine action (inhibiting rate %)” value with Na+ channel is 38.9%.

As to `COc1ccc(Cc2ccc(C3CCN(CC(=O)c4ccccc4)CC3)cc2)cc1` [Compound 70, 4-[4-(4-methoxyphenyl)methylphenyl]-1-(2-phenyl-2-oxo)ethylpiperidine], in the test on DBA/2N mice, the inhibition in vivo at 10 mg/kg was determined as 73.9%.

Take `O=C1c2ccccc2CC1N1CCC(c2ccc(Oc3ccccc3)cc2)CC1` (stereo not drawn) [Compound 71, 1-(1-oxoindan-2-yl)-4-(4-phenoxy)phenylpiperidine]: the inhibition in vivo at 10 mg/kg in the test with DBA/2N mice worked out at 32%.
